Here are results for 4 molecules from patent US7781423B2, “Compounds to promote regeneration of bone marrow” (priority 2007, dated 2010).

Data set [1] deals with cyclophosphamide-treated mice. Put plainly: Blood profile in cyclophosphamide-treated mice. It counts as in vivo, C57B1 mice. The conditions noted are these: for effect on blood profile (WBC, PTL): cyclophosphamide-treated mice, CCompound26 at a smaller dose than the two others. The protocol:
Twelve week old female C57B1 mice were used for the experiments. Each drug was administered intraperitoneally once a day for 5 consecutive days. In the second, third, fourth and fifth groups, mice were administered 120 mg/kg of cyclophosphamide (CP). In a third group, mice were also administered 4.5 mg/kg of CCompound1. In a fourth group, mice were also administered 4.5 mg/kg of CCompound3. In a fifth group, mice were also administered 2.0 mg/kg of CCompound26. In the first group, mice received no treatment. Each group included 5 animals. After 3 hours of the last treatments (on day 5), blood samples were collected from the ocular venous plexus of ether-anesthetized mice by retro-orbital venipuncture in heparanized tubes. Complete cell counts (RBC, red blood cell; WBC, white blood cell; PTL, platelet) were determined with a Sysmex F-800 hematology analyzer (To a Medical Electronics Co. LTD, Kobe, Japan). All data shown in Table 2 are the average of 5 independent determinations.

For another data set, the system named is MXT mammary tumor. It counts as in vivo. Conditions: for effect on body weight: MXT tumor-bearing, CP-treated mice, by day 22; for Total weight / Tumor weight / Body weight: CP 120-mg/kg i.p. x8 daily from day 6, CC compounds s.c. with each CP (1 and 3: 4.5-mg/kg, 26: 2.0-mg/kg); for Body weight: total minus tumor weight. On the procedure:
This experiment was designed to determine whether in a tumor model CC compounds could prevent cyclophosphamide-induced loss of body weight resulting from the depression of blood marrow function. Specified pathogen free (SPF) hygienic category colonies of first generation hybrid BDF1 (C57B1 female×DBA/2 male) adult female mice, weighing 23-24 g, were used. The animals were kept in macrolon cages at 22-24° C. (45-55% humidity), with a lighting regimen of 12/12 h light/dark. […] The animals used in these studies were cared for according to the “Guiding Principles for the Care and Use of Animals” based upon the Helsinki declaration.
MXT mammary tumor pieces (containing about 10^6 tumor cells) were implanted subcutaneously to develop the tumors. After six days when the tumor-bearing mice were first treated, the sizes of the tumors were in the 0.26-0.30 cm^3 range. All compounds used were dissolved in 0.9% sodium chloride and applied subcutaneously (CC compounds) or intraperitoneally (CP) in 50 μl volume. Tumor volume was determined by using calipers in three dimensions; this technique is well known to one having ordinary skill in the art. Tumor volume was calculated according to the generally accepted formula: V=a^2×b×π/6, where “a” and “b” mean the shortest and longest diameter, respectively, of the measured tumor.
In the first group, animals received no treatment. In the second group, mice were administered 120-mg/kg of CP on day 6 followed by seven consecutive daily treatments with the same dose. In the third group, each treatment with CP was associated with administration of 4.5-mg/kg of CCompound1. In the fourth group, each treatment with CP was associated with administration of 4.5-mg/kg of CCompound3. In the fifth group, each treatment with CP was associated with administration of 2.0-mg/kg of CCompound26. Each group included 7 mice. All data represent the average of 7 determinations (one determination with each mouse in the group).

Data set [2] has as its system healthy mice. Put plainly: Toxicity in healthy mice. The class given is in vivo. The conditions noted are these: for well tolerated maximal dose: mice weighing about 25 g. On the procedure:
Accordingly, a well tolerated maximal dose for CCompound1 or CCompound3 in mice (weighing about 25 g) is […] which corresponds to a dose of 4.6 mg/kg. Therapeutically effective concentrations of CC compounds in humans will exert significant promoting effects on bone marrow regeneration without causing toxicity in other normal healthy tissues.

Data set [3] has as its system healthy mice. Kind of data set: Toxicity in healthy mice. The conditions noted are these: 1,000-1,500 μmole doses. The class given is in vivo.
The next data set deals with human cancer patients. Conditions: following stem cell transplantation; cited from earlier work.
The mark [4] stands for this setting: i.p. once a day for 5 days, CP 120 mg/kg, CCompound1, 3: 4.5 mg/kg, CCompound26: 2.0 mg/kg, blood 3 hours after last treatment (day 5), 5 animals.
[5] abbreviates: day 6 after tumor transplantation (first treatment day).
[6] abbreviates: day 8 after tumor transplantation.
Where [7] appears, read: day 11 after tumor transplantation.
Where [8] appears, read: day 15 after tumor transplantation.
[9] abbreviates: day 18 after tumor transplantation.
The mark [10] stands for this setting: day 22 after tumor transplantation.
Setting [11] is: single 450 μmole (about 4.6 mg/kg) or daily 400 μmole for 5 consecutive days.

Like-named read-outs stand apart in the source and are kept apart here.

For the molecule `C=CC[N+](CC)(CC)CC/C=C1/c2ccccc2Sc2ccc(C)cc21.[Br-]` [CCcompound26, N,N-Diethyl-N-allyl-3-(2-methyl-9H-thioxanthen-9-ylidene)-propane-1-aminium bromide], the “effect on cyclophosphamide-induced decrease in white blood cell and platelet counts” value in data set [1] (2.0 mg/kg) was “partially reversed”. For the same molecule, the “effect on blood profile (WBC, PTL)” value in data set [1] is “least effective”. For the same molecule, the “toxic effects at the effective dose” value in the data set with MXT mammary tumor (2.0 mg/kg, inferred from prevented body weight loss) is “does not exert significant toxic effects”. For the same molecule, the “effect on body weight” value in the data set with MXT mammary tumor is recorded as “prevented body weight loss”. Moreover, the solubility in water result in “Solubility in water” is reported as “water-soluble”.
With `O=P1(N(CCCl)CCCl)NCCCO1` (centres unmarked) [CP, cyclophosphamide], in data set [1], the “effect on blood profile (WBC, PTL)” value was “decreases both WBC and PTL numbers”. In data set [1] (setting [4]), the PTL is on record as 404 ± 55 ×10^3/μl. The RBC in data set [1] (setting [4]) was 8.1 ± 0.9 ×10^6/μl. Further, the WBC in data set [1] (setting [4]) was 3.2 ± 0.7 ×10^6/μl. Also, the “effect on tumor weight” value in the data set on MXT mammary tumor (MXT tumor model) is listed as “effectively decreased tumor weight”. For the same molecule, the “effect on body weight” value with MXT mammary tumor is on record as “lost significant amounts of weight”. In addition, the Total weight in the data set on MXT mammary tumor (setting [5]) came to 22.4 grams; in the data set on MXT mammary tumor (setting [6]), 21.8 grams; in the data set on MXT mammary tumor (setting [7]), 20.2 grams; with MXT mammary tumor (setting [8]), 19.9 grams; with MXT mammary tumor (setting [9]), 18.8 grams; with MXT mammary tumor (setting [10]) it was 18.1 grams. The Tumor weight is on record as 0.2 grams in the data set on MXT mammary tumor (setting [5]); 0.2 grams with MXT mammary tumor (setting [6]); 0.1 grams in the data set with MXT mammary tumor (setting [7]); 0.2 grams in the data set on MXT mammary tumor (setting [8]); 0.1 grams in the data set on MXT mammary tumor (setting [9]); 0.1 grams in the data set with MXT mammary tumor (setting [10]). Besides, the Body weight in the data set with MXT mammary tumor (setting [5]) was determined as 22.2 grams; with MXT mammary tumor (setting [6]), 21.6 grams; in the data set with MXT mammary tumor (setting [7]) it was 20.1 grams; in the data set with MXT mammary tumor (setting [8]) it was 19.7 grams; with MXT mammary tumor (setting [9]), 18.7 grams; in the data set on MXT mammary tumor (setting [10]), 18.0 grams.
With `CC[N+](C)(CC)CCOCc1ccc2sc3ccccc3c(=O)c2c1.[I-]` [CCcompound3], in the data set with MXT mammary tumor, the “effect on body weight” value was “body weight gain”. For the same molecule, the “well tolerated maximal dose” value with healthy mice [2] is listed as 450 μmole/animal. For the same molecule, the “well tolerated maximal dose” value in the data set with healthy mice [2] (corresponds to 450 μmole/animal) is 4.6 mg/kg. For the same molecule, in the data set with healthy mice [2] (setting [11]), the “change in the composition of various blood constituents” value is recorded as “did not cause any significant change”; the “pathological alterations in the liver, brain, kidney, heart, spleen, intestine, and lung” value is given as “did not induce significant pathological alterations”. Further, the “tissue alterations at high doses” value with healthy mice [3] was “mild parenchymal degeneration in the heart, focal hypostasis and chronic bronchopneumonia”. Besides, the solubility in water entry in the data set “Solubility in water” is recorded as “soluble in water”.

B1: granulocyte-colony stimulating factor (protein, UniProt P09919 31-207, looked up)
Granulocyte …: TPLGPASSLPQSFLLKCLEQVRKIQGDGAALQEKLVSECATYKLCHPEELVLLGHSLGIPWAPLSSCPSQALQLAGCLSQLHSGLFLYQGLLQALEGISPELGPTLDTLQLDVADFATTIWQQMEELGMAPALQPTQGAMPAFASAFQRRAGGVLVASHLQSFLEVSYRVLRHLAQP
notes: cytokine that can reduce the duration and severity of cyclophosphamide-induced neutropenia
With B1, in the data set on human cancer patients, the “time to recover the platelet count to about 100,000 per 1 μl” value is “about 14 days” and the “time to recover the white blood cell count to 2,500 per 1 μl (mm^3)” value is reported as “about 10 days”.
